Laboratory results: patent US20020147136A1, “Compounds for targeting endothelial cells, compositions containing the same and methods for their use” (priority 2000, published 2002)
Residues, ends and D or L forms follow the SMILES beside them.

Columns and labels:
[1] = system: Human aortic endothelial cells (HAEC); test: TKPPR-conjugated fluorescent bead binding to HAEC, static; format: cell-based
Protocol: Human aortic endothelial cells (HAEC) from Biowhittaker were grown as monolayers in EGM-MV medium from Biowhittaker according to the supplier's instructions.
Briefly, a frozen cryovial of cells (500,000 cells in about 1 mL) was thawed for 2-3 minutes in a 37° C. water bath and cells were seeded into a T-75 flask coated with collagen I (commercially available) containing 15 mL EGM-MV of medium pre-equilibrated with 5% CO2 atmosphere. Cells were incubated in a standard tissue culture incubator at 37° C. HAEC were subcultured for up to 3 additional passages, using the following protocol:
For binding studies and characterization, pelleted cells were diluted to a concentration of 16,560 cells per mL, and 0.5 mL was seeded into each well of an 8-well chamber slide (Collagen I-coated, Becton Dickinson) to generate a seeding density of 12,000 cells/cm^2. Cells seeded into chamber slides were used for assays after 7 to 10 days, and were not further propagated.
TKPPR (see preparation described in the Example 1) was attached to red fluorescent carboxylate-modified FluoSpheres™ (Molecular Probes), which are 2.0 μm microspheres provided at 3.9×10^9 particles/mL of distilled water. 1.0 mg TKPPR was combined with 0.5 mLof 50 mM MES buffer (2-[N-Morpholino]ethanesulfonic acid, (commercially available), pH 6.0 and 0.2 mL FluoSpheres (7.8×10^8 spheres) in a 1.5 mL Eppendorf snap top, polypropylene centrifuge tube and rotated for 30 min at room temperature (RT). Then 2.8 mg EDAC (1-ethyl-3-(3-dimethylaminopropyl)carbodiimide hydrochloride, (commercially available) in 0.025 mL MES was added and the tube was rotated for 2 h at RT. Following the addition of 0.005 mL 1 N NaOH and 5.7 mg glycine in 0.025 mL MES, the tube was rotated for 30 min more at RT. The beads were then washed by employing three cycles of centrifugation at 14,000 rpm (20,800× g) in an Eppendorf 5417R centrifuge for 15 min, discarding the resulting supernatant, and resuspending in D-PBS. Storage was at 4° C. in 0.4 mL DPBS containing 0.05% NaN3 (final bead concentration was about 1.95×10^9/mL).
Final bead concentration was 1.95×10^7/mL. […]
Bead binding and localization was assessed at 200× magnification using the same microscopy equipment as described above. […] Finally, the processed images were inverted into black on a white background using Scion Image software (version beta 3b) and the integrated density was measured with the whole field selected.
The incubation time was decreased to 15 min on an orbital shaker, and the washes (3) were carried out using D-PBS containing 0.1% Tween 20 (Sigma). […] TKPPR-bead binding was quantitated in three fields, the other bead types were quantitated in one field only. Bound beads were quantitated by manual counting.

HAEC = test: TKPPR-bead binding to endothelial cells under flow; format: cell-based, human; details: flow 1.91 mL/min, 37° C.
Protocol: Circular 40 mm diameter glass coverslips (Bioptechs, Cat No. 40-1313-0319) were first derivative by dipping in 3-aminopropyltriethoxysilane (Pierce, Cat No. 80370ZZ), 20% in acetone (HPLC grade, Sigma Aldrich Cat No. 27,072-5), rinsed in acetone, and air-dried. After autoclaving, the derivatized coverslips were placed into 60 mm round, sterile culture dishes, one coverslip per dish. Five mL of a Collagen I solution (Becton Dickinson, Cat No. 40236), 41.6 μg/mL in 20 mM acetic acid (adjusted to pH 6.7 with NaOH), was added to each coverslip-containing dish. After 15 min, 0.25 mL of 11.5 mg/mL bis(sulfosuccinimidyl) suberate (Pierce, Cat No. 21580ZZ) was added to each dish and mixed in by swirling. After a 105-minute incubation, the dishes were drained and 5 mL of sterile TBS (20 mM Tris-HCl, pH 7.5, 140 mM NaCl) was added to each dish. […]
Coverslips containing confluent HAEC were mounted into a Bioptechs FCS2 parallel plate flow cell mounted on an Olympus IMT-2 inverted microscope. […] Wall shear stress T, in dynes/cm^2, was calculated using the equation (Lawrence et al., Blood 75:227-237, 1990): [formula]
Bead binding of equal numbers of red fluorescent beads conjugated with TKPPR and green fluorescent beads conjugated with glycine was monitored after increasing lengths of perfusion and variable lengths of subsequent washing with the same solution lacking microspheres.

CC(O)C(N)C(=O)NC(CCCCN)C(=O)N1CCCC1C(=O)N1CCCC1C(=O)NC(CCCNC(=N)N)C(=O)O [TKPPR, L-Arginine, L-threonyl-L-lysyl-L-prolyl-L-prolyl] (H-TKPPR-OH; configuration not given here)
Integrated density of bound beads ([1]; Experiment 1, 1.95×10^7 beads/mL, 30 min, HAEC monolayer): 229.97 arbitrary units | Number of bound beads ([1]; Experiment 2, 4.9×10^6 beads/mL, 15 min, manual counting, TKPPR average of three fields, others one field): 74, 103, 72 (ave. 83) | Beads bound at 1.53 dynes/cm^2 (HAEC): 86
